{
  "source": "patent US20080248024A1",
  "about": "“THERAPEUTIC AGENT FOR CANCER, INFLAMMATION, AND AUTO-IMMUNE DISEASE CONTAINING INHIBITOR OF ZINC FINGER PROTEIN 91” (Korea Research Institute of Bioscience and Biotechnology, priority 2007, published 2008)",
  "key": {"ZFP91 promoter": {"system": "ZFP91 promoter", "experiment": "ZFP91 promoter luciferase reporter assay (pGL3-ZFP91prom-LUC)", "type": "cell-based, human"}, "ZFP91 [1]": {"system": "ZFP91", "experiment": "ZFP91 expression in MCF-7 treated with NF-κB activators", "type": "cell-based, human", "conditions": "TNF-α 20 ng/ml, PMA 20 ng/ml, IL1-β 20 ng/ml, H2O2 1 mM, 0, 3, 6, 14, 24 hours", "procedure": "To examine whether ZFP91 expression was regulated by NF-κB, the breast cancer cell line MCF-7 was treated with the NF-κB activators, TNF-α (20 ng/ml), PMA (20 ng/ml), IL1-β (20 ng/ml) and H2O2 (1 mM) for 0, 3, 6, 14, and 24 hours. After 0, 3, 6, 14, and 24 hours from the treatment, poly(A)^+ RNA was extracted, followed by Northern blotting. The probe used for Northern blotting was prepared as follows; TOPO cloning vector inserted with ZFP91 was digested with EcoRI and the insert alone was used after random prime labeling with [α-^32P]dCTP. ZFP91 expressions over the time were investigated. […] The NF-κB activators p65, IKKα, IKKβ, and NIK were expressed in MCF-7 cells. 48 hours later, ZFP91 expressions in the cells were investigated."}, "MDA-MB-435 [2]": {"system": "MDA-MB-435", "experiment": "MDA-MB-435 xenograft tumor growth in nude mice", "type": "in vivo", "conditions": "15 mg/kg into the abdominal cavity every other day, 12 times", "procedure": "(§1) The human breast cancer cell line MDA-MB-435 was transplanted in the glandular fatty tissues of nude mice (Charles River Laboratory, Wilmington, Mass., USA) at 5 weeks (1×10^6 cells/mouse). 12 days later, the nude mice having tumor were grouped by 8. Kamebakaurin dissolved in 0.5% Tween 80 was administered into the abdominal cavity every other day at the concentrations of 1.5 and 15 mg/kg 12 times in total. The tumor size was measured for 23 days after the transplantation. The tumor size was calculated by “width 2 (square)×[…]/2=tumor volume (mm^3)”."}, "HIF-1α": {"system": "HIF-1α", "experiment": "HIF-1α expression induced under 1% oxygen in AGS cells expressing ZFP91", "conditions": "AGS cells expressing ZFP91, 1% oxygen"}, "[3]": {"system": "MAGEA4, TNFAIP3 and ZFP91", "experiment": "Northern blotting of candidate genes regulated by kamebakaurin", "type": "cell-based, human", "conditions": "kamebakaurin 10 μg/ml, 5 hours, MDA-MB-231 cells", "procedure": "MDA-MB-231 cells were treated with DMSO and kamebakaurin (10 μg/ml), followed by culture for 5 hours. The cells were washed with cold PBS three times, and poly(A)^+ RNA was extracted by using FastTrack 2.0 kit (Invitrogen). 2 μg of the extracted poly (A)^+ RNA was eletrohporesed on 1% agarose-formaldehyde gel, which was transferred onto a nylon membrane (Roche, Mannheim, Germany). To investigate the expressions of selected candidate genes, the PCR product was purified by using Wizard PCR PrepsDNA Purification Systems (Promega Corporation, Madison, Wis., U.S.A.) and then used as a probe. Each probe was labeled with [α-^32P]dCTP using Rediprime™ II random prime labeling system (Amersham Biosciences). Non-incorporated ^32P was removed by using spin column (ProbeQuant™ G-50 Micro Columns; Amersham Biosciences). The prepared cDNA was used as a probe for hybridization with the membrane. After the hybridization, the membrane was washed with 2×SSC/0.1% SDS, which was exposed on X-ray film at −80° C. with intensifying screen."}, "[4]": {"system": "PTPN11, SPIN, ECT2, EWSR1, MLLT4, MAGEA4, TNFAIP3 and ZFP91", "experiment": "RT-PCR of candidate genes regulated by kamebakaurin", "type": "cell-based, human", "conditions": "kamebakaurin 10 μg/ml, 5 hours, MDA-MB-231 cells", "procedure": "A human breast cancer cell line MDA-MB-231 cells was treated with DMSO and kamebakaurin (10 μg/ml) respectively, followed by culture for 5 hours. The cells were washed with cold PBS three times, and then total RNA was extracted by using RNeasy Mini kits (Qiagen, Santa Clarita, Calif., USA) 5 μg of the total RNA was used for the synthesis of cDNA using Invitrogen kit Access RT-PCR Kit (Promega, Madison, Wis., U.S.A.). The ZFP91 specific primer was constructed based on the nucleotide sequence of Genebank (Accession No. NM-053023). Each candidate gene specific primer was constructed based on the informed nucleotide sequences (Table 1). PCR was performed with prepared cDNA as follows: predenaturation at 95° C. for 5 minutes, denaturation at 94° C. for 1 minute, annealing at 50° C.-60° C. for 2 minutes, polymerization at 70° C. for 1 minute, 30 cycles from denaturation to polymerization. The gene-specific PCR products proceeded to electrophoresis on 1% agarose gel, followed by EtBr staining (FIG. 1)."}, "MDA-MB-435 [5]": {"system": "MDA-MB-435", "experiment": "MDA-MB-435 xenograft metastasis to the lung in nude mice", "type": "in vivo", "conditions": "for Frequency (metastatic mice/total mice) / Minimum metastasis number-maximum metastasis number / number of metastasis in lung (median value) / Mean number of metastasis in lung: 35 days after transplantation; for Mean number of metastasis in lung: colonies >diameter 2 mm", "procedure": "as §1\nAfter 35 days from the transplantation, the lung of the mouse was excised and washed with water and fixed in Bouin's solution (SIGMA). The colonies metastasized to the surface of the lung (>diameter 2 mm) were counted under microscope and the mean values are shown in Table 2."}, "ZFP91 [6]": {"system": "ZFP91", "experiment": "TNF-α mediated ZFP91 expression in FLAG-ZFP91 expressing AGS cells, Western blotting", "conditions": "pre-treatment 30 minutes with KA 1, 10 ug/ml, celastrol 0.2, 2 ug/ml, parthenolide 0.5, 5 ug/ml, TNF-α 50 ng/ml 3 hours", "quoted_text": "TNF-α (50 ng/ml) was treated thereto for 3 hours. Then, cell lysate was obtained, followed by Western blot analysis using a mouse anti-FLAG antibody.\nFLAG-ZFP91 expressing AGS cells were pre-treated with the NF-κB inhibitors, kamebakaurin (KA), celastrol (Cel), parthenolide (PTN), for 30 minutes. TNF-α mediated ZFP91 expression was investigated by Western blotting using anti-ZFP91 antibody."}, "ZFP91 [7]": {"system": "ZFP91", "experiment": "ZFP91 expression after ZFP91 siRNA, Western blotting", "type": "cell-based, human", "conditions": "various cancer cells", "description": "To investigate the effect of ZFP91 on HIF-1 activation, a human stomach cancer cell line, AGS cells and AGS cells transformed with ZFP91 were transfected with HRE dependent reporter plasmid. ZFP91 siRNA oligomers (SEQ. ID. NO: 1-NO: 4; siRNA sequences corresponding to amino terminal region ccaggtg gcattagtag tgaa, sense: r(AGG UGG CAU UAG UAG UGA A)dTdT, antisense: r(UUC ACU ACU AAU GCC ACC U)dGdG; produced by GIAGEN) were introduced into the above cell lines by using RANiFect Transfection reagent (QIAGEN, Germany).\nParticularly, After 24 hours incubation of 1×10^5 cells/well distributed in a 24-well plate. siRNA oligomer (3.8 ul of SIRNA oligomer: 1 ug) was introduced into the cells with 96.2 ul of medium or EC-R buffer and 6 ul of RNAiFect reagent (Quiagen) and then the plate was kept at room temperature for 10-15 minutes. During the incubation, the medium of 24-well plate was replaced with 300 μl of fresh medium and the mixture of siRNA oligomer and RNAiFect reagent was slowly added and carefully mixed. The reaction mixture was incubated for 24 hours under normoxic condition, and then further cultured for another 24 hours in an incubator in the presence of 1% oxygen. Some of extracts of the cells proceeded to luciferase assay and HIF-1 induced luciferase activity was measured. […]"}, "[8]": {"conditions": "ZFP91 promoter containing both KB1 and KB2"}},
  "note": "“Also recorded” adds a separate entry of the source. Like-named read-outs stand apart in the source and are kept apart here.",
  "data": [
    {"compound": "[Cl-].[Cl-].[Co+2]", "note": "[CoCl2]", "values": [
      {"measurement": "ZFP91 promoter activity", "setting": "ZFP91 promoter", "value": "significantly increased"}
    ]},
    {"compound": "OO", "note": "[H2O2]", "values": [
      {"measurement": "ZFP91 at mRNA level", "setting": "ZFP91 [1]", "value": "not much increased"},
      {"measurement": "ZFP91 at protein level", "setting": "ZFP91 [1]", "value": "significantly increased time-dependently"},
      {"measurement": "ZFP91 promoter activity", "setting": "ZFP91 promoter; stomach cancer cell line transfected with pGL3-ZFP91prom-LUC", "value": "significantly increased"}
    ]},
    {"compound": "CCCCCCCCCCCCCC(=O)O[C@@H]1[C@@H](C)[C@@]2(O)[C@@H](C=C(CO)C[C@]3(O)C(=O)C(C)=C[C@@H]23)[C@@H]2C(C)(C)[C@]12OC(C)=O", "note": "[PMA]", "values": [
      {"measurement": "ZFP91 at mRNA level", "setting": "ZFP91 [1]", "value": "not much increased"},
      {"measurement": "ZFP91 at protein level", "setting": "ZFP91 [1]", "value": "significantly increased time-dependently"},
      {"measurement": "ZFP91 promoter activity", "setting": "ZFP91 promoter; [8]", "value": "induced"}
    ]},
    {"compound": "C=C1C(=O)[C@@]23[C@H](O)C[C@@H]4C(C)(C)CC[C@H](O)[C@@]4(CO)[C@@H]2CC[C@@H]1[C@H]3O", "note": "[kamebakaurin, Kamebakaurin]", "values": [
      {"measurement": "tumor growth", "setting": "MDA-MB-435 [2]", "value": "significantly inhibited"},
      {"measurement": "HIF-1α expression / accumulation", "setting": "HIF-1α", "value": "suppressed; also recorded: inhibited; also recorded: significantly reduced"},
      {"measurement": "expression levels of MAGEA4, TNFAIP3 and ZFP91 (Northern blotting) vs KA-non-treated control", "setting": "[3]", "value": "significantly different"},
      {"measurement": "expression of PTPN11, SPIN, ECT2, EWSR1, MLLT4, MAGEA4, TNFAIP3 and ZFP91 (RT-PCR)", "setting": "[4]", "value": "down-regulated by at least two times"},
      {"measurement": "Frequency (metastatic mice/total mice)", "setting": "MDA-MB-435 [5]; 1.5 mg/kg", "value": "6/8"},
      {"measurement": "Minimum metastasis number-maximum metastasis number", "setting": "MDA-MB-435 [5]; 1.5 mg/kg", "value": "(0-6)"},
      {"measurement": "number of metastasis in lung (median value)", "setting": "MDA-MB-435 [5]; 1.5 mg/kg", "value": 3},
      {"measurement": "Mean number of metastasis in lung", "setting": "MDA-MB-435 [5]; 1.5 mg/kg", "value": 3.3},
      {"measurement": "Frequency (metastatic mice/total mice)", "setting": "MDA-MB-435 [5]; 15 mg/kg", "value": "6/8"},
      {"measurement": "Minimum metastasis number-maximum metastasis number", "setting": "MDA-MB-435 [5]; 15 mg/kg", "value": "(0-4)"},
      {"measurement": "number of metastasis in lung (median value)", "setting": "MDA-MB-435 [5]; 15 mg/kg", "value": 2},
      {"measurement": "Mean number of metastasis in lung", "setting": "MDA-MB-435 [5]; 15 mg/kg", "value": 1.8},
      {"measurement": "metastasis to the lung", "setting": "MDA-MB-435 [5]; 15 mg/kg, nude mice, MDA-MB-435", "value": "significantly inhibited"},
      {"measurement": "TNF-α mediated ZFP91 expression", "setting": "ZFP91 [6]", "value": "suppressed; also recorded: inhibited"}
    ]},
    {"compound": "IL-1β: pro-inflammatory cytokine, NF-κB activator", "values": [
      {"measurement": "ZFP91 at mRNA level", "setting": "ZFP91 [1]", "value": "not much increased"},
      {"measurement": "ZFP91 at protein level", "setting": "ZFP91 [1]", "value": "significantly increased time-dependently"},
      {"measurement": "ZFP91 promoter activity", "setting": "ZFP91 promoter; [8]", "value": "induced"}
    ]},
    {"compound": "TNF-α", "values": [
      {"measurement": "ZFP91 at mRNA level", "setting": "ZFP91 [1]", "value": "not much increased"},
      {"measurement": "ZFP91 at protein level", "setting": "ZFP91 [1]", "value": "significantly increased time-dependently"},
      {"measurement": "ZFP91 promoter activity", "setting": "ZFP91 promoter; [8]", "value": "induced"}
    ]},
    {"compound": "ZFP91 siRNA 1: siRNA corresponding to the nucleotide sequence 710-730 (NCBI, NM-053023) of ZFP91, SEQ. ID. NO: 1 and NO: 2 (chain 1 GGCAUUAGUAGUGAA; chain 2 UUCACUACUAAUGCCACCU; listed as RNA, chemistry not fully specified)", "values": [
      {"measurement": "ZFP91 expression", "setting": "ZFP91 [7]", "value": "Suppression"}
    ]},
    {"compound": "ZFP91 siRNA 2: siRNA corresponding to nucleotides 2261-2279 of 3′ untranslated region of ZFP91, SEQ. ID. NO: 3 and NO: 4 (chain 1 GCGGCACACUUAUCUUCAA; chain 2 UUGAAGAUAAGUGUGCCGC; listed as RNA, chemistry not given here)", "values": [
      {"measurement": "ZFP91 expression", "setting": "ZFP91 [7]", "value": "Suppression"}
    ]}
  ]
}
